Results from patent US20250215016A1, “ISOXAZOLE-HETEROCYCLIC DERIVATIVE, PHARMACEUTICAL COMPOSITION AND USE” (SHANGHAI SIMR BIOTECHNOLOGY CO., LTD, priority 2022, published 2025).

What was measured:
[1] = target: human α5β3γ2 receptor (α5-GABAA receptor) (Homo sapiens (Human), UniProt P18507+P31644); assay: Radioligand (3H-flunitrazepam) competition binding assay, BZD site; conditions: 3H-flunitrazepam 1 nM; HEK293 membranes expressing human α5β3γ2
Outline: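 Membranes from HEK293 cells stably expressing human α2β3γ2 or α5β3γ2 (5 μg protein/well) incubated 1 h at room temperature with 1 nM ^3H-flunitrazepam and 8-point 4-fold compound dilutions; nonspecific binding defined with 10 μM flumazenil. Filter-bound radioactivity counted; Ki derived from fitted IC50.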

[2] = target: human α2β3γ2 receptor (α2-GABAA receptor) (Homo sapiens (Human), UniProt P18507+P47869); assay: Radioligand (3H-flunitrazepam) competition binding assay, BZD site; α2 vs α5 binding selectivity; conditions: ratio of Ki at α2β3γ2 to Ki at α5β3γ2
Description: α, β and γ subunits are essential for the formation of a complete functional GABAA receptor. In this example, HEK293 cell strains stably expressing human α5-GABAA receptor (comprising α5β3γ2 subunit) and α2-GABAA receptor (comprising α2β3γ2 subunit) were constructed and screened, respectively, by liposome transfection method (Felgner, P. L., et al., Proceedings of the National Academy of Sciences, 1987, 84:7413-7417). The specific subunit protein sequences are as follows: α5 subunit (protein sequence can be found in GenBank accession number: NM_000810.3); α2 subunit (protein sequence can be found in GenBank accession number: NM_000807.4); β3 subunit (protein sequence can be found in GenBank accession number: NM_000814.5); γ2 subunit (protein sequence can be found in GenBank accession number: NM_000816.3).
The above cell lines were subcultured. Amplification of α5β3γ2-HEK293 and α2β3γ2-HEK293 cells was used to test the affinity of the compounds to benzodiazepine site (BZD) of the GABAA receptor. During the passage of α5β3γ2-HEK293 cells, some of the suspended cells were spread on a glass slide pretreated with Poly-D-Lysine for electrophysiological testing.
Flunitrazepam is a non-specific reagent that binds to the BZD site efficiently. The affinity of the compounds to the BZD sites of the human α5β3γ2 and α2β3γ2 receptors can be determined by competing the compound with ^3H-flunitrazepam (isotope ^3H-labeled flunitrazepam) for binding to these two receptors.
Membrane preparation: HEK293 cells stably expressing human α5β3γ2 receptor or α2β3γ2 receptor were collected, suspended in 50 mM Tris-HCl buffer (pH=7.4), homogenized on ice by a homogenizer for 20 seconds 10 times, and centrifuged at 4° C., 1000 g for 10 min. The supernatant was collected, and the above steps were repeated. The supernatant was centrifuged (33800 g; centrifuge purchased from Thermo, rotor model: A27-8×50) at 4° C. for 60 min, and the precipitate was resuspended in Tris buffer (50 mM Tris-HCl, 10 mM MgCl2, 0.5 mM EDTA, 10% glycerol). The precipitate was the cell membrane. Protein content was determined by BCA (Bicinchoninic Acid) method (BCA kit from Pierce (Annoron)). The cell membrane was prepared into 1 ml aliquot and stored at −80° C.
Radioligand competition binding assay: the assay was carried out in a 200 μL system (96-well plate from Agilent) with 100 μL of cell membrane. The concentration of ^3H-flunitazepam (from PerkinElmer, lot: NET567250 UC) was 1 nM and the concentration of test compound was in the range 1×10^−5-10^−6 M. Flumazenil (from Tocris; lot: 1318) was used as a control. 1 μL of 2 mM flumazenil (final concentration 10 μM) was added to the Low signal control well (Low control, LC) and 1 μL of DMSO (from Sigma aldrich, lot: 472301) was added to the High signal control well (High control, HC). The final target membrane protein concentration was 5 μg/well. All test compound sample stocks were 10 mM DMSO solutions. The working concentration of the samples is to dilute all samples with DMSO to 0.2 mM, and then perform 4-fold continuous gradient dilution for a total of 8 concentration gradients. The 96-well plate was sealed with a plate sealing membrane and then incubated on a shaker at room temperature for 1 hour. Meanwhile, GF/C filter plate was soaked with a plate soaking buffer (0.3% PEI, polyethyleneimine, purchased from Sigma aldrich, model: P314, stored at 4° C.) for at least 0.5 hours. After completion of binding incubation, the cells were collected with a cell collector onto the GF/C filter plate and washed four times with a plate washing buffer (50 mM Tris-HCl, pH 7.4, stored at 4° C.). […]

[3] = Stability in simulated gastric fluid (SGF); assay type: physicochemical; conditions: 37° C., 1000 rpm
Outline: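 Compound diluted into SGF from 10 mmol/L DMSO stock, shaken at 1000 rpm, 37 °C, sampled at 0 and 4 h, quenched with acetonitrile. Reversed-phase C18 HPLC with UV 254 nm; percent change in main peak area at 4 h versus 0 h, duplicate average.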

| Structure (SMILES) | Ki [1] [nM] | Selectivity α2 ki/α5 ki [2] [folds] | Residual content in simulated gastric juice after 4 hours (compared with 0 hour content) [3] |
| --- | --- | --- | --- |
| Cc1onc(-c2ccc(F)cc2)c1COc1ccc(N2CCn3ccnc3C2=O)nn1 [Compound 37, 7-(6-((3-(4-fluorophenyl)-5-methylisoxazol-4-yl)methoxy)pyridazin-3-yl)-6,7-dihydroimidazo[1,2-a]pyrazin-8(5H)-one] | 5.37 | 48.6 | – |
| Cc1onc(-c2ccc(F)cc2)c1COc1cnc(-c2nnc3n2CCOCC3)cn1 [Compound 33, 3-(5-((3-(4-fluorophenyl)-5-methylisoxazol-4-yl)methoxy)pyrazin-2-yl)-5,6,8,9-tetrahydro-[1,2,4]triazolo[4,3-d][1,4]oxazepane] | 9.74 | 86.7 | 91% (4 hours) |
| Cc1onc(-c2ccc(F)cc2)c1COc1cnc(-c2nnc3n2CCC3)cn1 [Compound 23, 4-(((5-(6,7-dihydro-5H-pyrrolo[2,1-c][1,2,4]triazol-3-yl)pyrazin-2-yl)oxy)methyl)-3-(4-fluorophenyl)-5-methylisoxazole] | 3.06 | 90.2 | 80% (4 hours) |
| Cc1onc(-c2ccc(F)cc2)c1COc1ccc(N2CCN3CCNC(=O)C3C2)nn1 (centres unmarked) [Compound 10, 8-(6-((3-(4-fluorophenyl)-5-methylisoxazol-4-yl)methoxy)pyridazin-3-yl) hexahydro-2H-pyrazino[1,2-a]pyrazin-1 (6H)-one] | 3.2 | 63.3 | – |
| Cc1onc(-c2ccc(F)cc2)c1COc1cnc(-c2nnc3n2CCCOC3)cn1 [Compound 24, 3-(5-((3-(4-fluorophenyl)-5-methylisoxazol-4-yl)methoxy)pyrazin-2-yl)-6,7-dihydro-5H,9H-[1,2,4]triazolo[3,4-c][1,4]oxazepane] | 6.75 | 39.2 | – |
| Cc1onc(-c2ccc(F)cc2)c1COc1ccc(-c2cc3n(c(=O)n2)C[C@]24CO[C@H](CN32)C4)cn1 [Compound 38] | 2.24 | 122.2 | 75% (4 hours) |
| Cc1onc(-c2ccc(F)cc2)c1COc1ccc(-c2nnc3n2CCOC3)nn1 [Compound 18, 3-(6-((3-(4-fluorophenyl)-5-methylisoxazol-4-yl)methoxy)pyridazin-3-yl)-5,6-dihydro-8H-[1,2,4]triazolo[3,4-c][1,4]oxazine] | 0.32 | 41.4 | 51% (4 hours) |
| Cc1onc(-c2ccc(F)cc2)c1COc1ccc(-c2nnc3n2CCS(=O)(=O)C3)cn1 [Compound 7, 3-(6-((3-(4-fluorophenyl)-5-methylisoxazol-4-yl)methoxy)pyridin-3-yl)-5,6-dihydro-8H-[1,2,4]triazolo[3,4-c][1,4]thiazine 7,7-dioxide] | 2.14 | 11.01 | – |
| Cc1onc(-c2ccc(F)cc2)c1COc1ccc(-c2cc3n(c(=O)n2)CCN3C)cn1 [Compound 41, 7-(6-((3-(4-fluorophenyl)-5-methylisoxazol-4-yl)methoxy)pyridin-3-yl)-1-methyl-2,3-dihydroimidazo[1,2-c]pyrimidin-5(1H)-one] | 0.99 | 75.8 | 35% (4 hours) |
| Cc1onc(-c2ccc(F)cc2)c1COc1cnc(-c2nnc3n2CCOC3)cn1 [Compound 19, 3-(5-((3-(4-fluorophenyl)-5-methylisoxazol-4-yl)methoxy)pyrazin-2-yl)-5,6-dihydro-8H-[1,2,4]triazolo[3,4-c][1,4]oxazine] | 1.62 | 93.8 | 94% (4 hours) |
| Cc1onc(-c2ccc(F)cc2)c1COc1ccc(-c2nnc3n2CCOC3)cn1 [Compound 17, 3-(6-((3-(4-fluorophenyl)-5-methylisoxazol-4-yl)methoxy)pyridin-3-yl)-5,6-dihydro-8H-[1,2,4]triazolo[3,4-c][1,4]oxazine] | 2.59 | 23.1 | 65% (4 hours) |
